For series [1], the target named is T1, MRGPRX4-83S (Homo sapiens, UniProt Q96LA9, L83S). The series can be described thus: β-arrestin assay (CHO β-arrestin human MRGPRX4-83S). Format: cell-based. Set-up: host or cells: CHO β-arrestin cells. Particulars: for Emax: efficacy based on 100 nM B-16 (set as 100%), read-out: Emax; for EC50: β-arrestin recruitment, CHO cells, MRGPRX4-83S, read-out: EC50 ± SEM. Summed up: (§1)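 β-Galactosidase enzyme-fragment complementation in engineered CHO lines expressing human MRGPRX4 reported β-arrestin recruitment. Intracellular calcium was followed in astrocytes engineered with the 83L variant or in LN229 cells endogenously carrying the 83S variant.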

Series [2] deals with T2, human MRGPRX4-83L (Homo sapiens, UniProt Q96LA9).
T2 construct: host or cells: CHO β-arrestin cells
The series can be described thus: β-arrestin assay (CHO β-arrestin ARMS1-ProLink 2 human MRGPRX4 83L). The note with it: for Emax: efficacy based on maximal effect of 100 nM B-16 (set as 100%), read-out: Emax; for EC50: β-arrestin recruitment, CHO cells, MRGPRX4-83L, read-out: EC50 ± SEM. In kind it is cell-based. The procedure, abridged:
as §1

Series [3] deals with T1, MRGPRX4-83S. In words: Calcium assay (human glioblastoma LN229 cells expressing the MRGPRX4-83S). Format: cell-based. Set-up: LN229 glioblastoma cells natively expressing the MRGPRX4-83S; endogenous in cells; host or cells: LN229 human glioblastoma cells. The note with it: for Emax: LN-229, efficacy based on 30 μM H-1 (set as 100%), read-out: Emax; for EC50: calcium mobilization, LN229 cells, MRGPRX4-83S, read-out: EC50 ± SEM. The procedure, abridged: as §1

Series [4] deals with T2, human MRGPRX4-83L. The series can be described thus: Calcium assay (human MRGPRX4 83L), recombinant astrocytes. In kind it is cell-based. Particulars: for EC50: calcium mobilization, MRGPRX4-83L, read-out: EC50 ± SEM; for Emax: efficacy based on maximal effect of 1 μM B-16 (set as 100%), read-out: Emax. Summed up: as §1
Setting [5] is: Table 1, means of 3-4 experiments.

T1 sequence (Q96LA9 whole entry L83S, the tested form may be a part): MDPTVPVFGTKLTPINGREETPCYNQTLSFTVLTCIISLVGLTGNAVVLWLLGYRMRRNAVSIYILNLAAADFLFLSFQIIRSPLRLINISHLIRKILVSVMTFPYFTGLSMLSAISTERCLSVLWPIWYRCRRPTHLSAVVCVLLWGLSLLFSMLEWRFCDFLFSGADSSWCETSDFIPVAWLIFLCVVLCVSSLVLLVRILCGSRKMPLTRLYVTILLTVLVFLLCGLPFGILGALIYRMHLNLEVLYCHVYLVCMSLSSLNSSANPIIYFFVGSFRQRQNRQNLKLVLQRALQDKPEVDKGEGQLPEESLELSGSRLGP
T2 sequence (Q96LA9 whole entry): as the sequence (Q96LA9 whole entry L83S, the tested form may be a part) above, with S83L counted along it

As for `C#CCn1c(=O)c2c(nc(CCc3c(Cl)cccc3Cl)n2CC)n(CCCCP(=O)(O)O)c1=O` [B-34, (4-(8-(2,6-Dichlorophenethyl)-7-ethyl-2,6-dioxo-1-(prop-2-yn-1-yl)-1,2,6,7-tetrahydro-3H-purin-3-yl)butyl)phosphonic acid], the melting point was in the range of 207 to 209 °C. In addition, at MRGPRX4-83S [1] (Table 3), the maximal response (Emax) worked out at 110% and the EC50 amounted to 0.146 ± 0.033 nM. Moreover, at human MRGPRX4-83L [2] (Table 4), the maximal response (Emax) was 95% and the EC50 was determined as 9.02 ± 1.49 nM. Also, on MRGPRX4-83S [3] (Table 3), the Emax worked out at 104% and the EC50 amounted to 0.363 ± 0.109 nM. Moreover, at human MRGPRX4-83L [4] (Table 4), the 50% effective concentration (EC50) amounted to 2 ± 0.94 nM and the Emax stood at 97%.

`C#CCn1c(=O)c2[nH]c(CCc3cccc(F)c3)nc2n(CCCCP(=O)(O)O)c1=O` [B-3, (4-(8-(3-Fluorophenethyl)-2,6-dioxo-1-(prop-2-yn-1-yl)-1,2,6,7-tetrahydro-3H-purin-3-yl)butyl)phosphonic acid] came in with a melting point of 154 to 156 °C. Also, on MRGPRX4-83S [1] (Table 2), the Emax is 93% and the EC50 is 33.9 ± 5.1 nM. The Emax on human MRGPRX4-83L [2] (Table 1) came to 89%. Further, at human MRGPRX4-83L [2] (setting [5]), the EC50 amounted to 7940 ± 1450 nM. In addition, at MRGPRX4-83S [3] (Table 2), the maximal response (Emax) was 118% and the EC50 is 63.1 ± 18.6 nM. Also, on human MRGPRX4-83L [4] (Table 1), the EC50 came out at 601 ± 103 nM and the Emax is 110%.

In turn, `C#CCn1c(=O)c2c(nc(CCc3ccccc3Br)n2CC2CCC2)n(CCCCP(=O)(O)O)c1=O` [B-45, (4-(8-(2-Bromophenethyl)-7-(cyclobutylmethyl)-2,6-dioxo-1-(prop-2-yn-1-yl)-1,2,6,7-tetrahydro-3H-purin-3-yl)butyl)phosphonic acid] registered a melting point of 167 to 169 °C. In addition, on MRGPRX4-83S [1] (Table 3), the Emax is 93% and the EC50 is 0.298 ± 0.05 nM. For the same compound, on human MRGPRX4-83L [2] (Table 4), the Emax turned out to be 99% and the 50% effective concentration (EC50) was 85.1 ± 27.9 nM. Moreover, on MRGPRX4-83S [3] (Table 3), the Emax amounted to 97% and the EC50 was 0.32 ± 0.087 nM. On human MRGPRX4-83L [4] (Table 4), the EC50 is 12.7 nM and the Emax was 101%.

Compound `C#CCn1c(=O)c2[nH]c(CCc3cccc(Br)c3)nc2n(CCCCP(=O)(O)O)c1=O` [B-4, (4-(8-(3-Bromophenethyl)-2,6-dioxo-1-(prop-2-yn-1-yl)-1,2,6,7-tetrahydro-3H-purin-3-yl)butyl)phosphonic acid] displayed a melting point of 240 to 242 °C. Also, on MRGPRX4-83S [1] (Table 2), the Emax stood at 110% and the EC50 turned out to be 3.24 ± 1.16 nM. Besides, on human MRGPRX4-83L [2] (Table 1), the Emax was determined as 103%. Also, the EC50 at human MRGPRX4-83L [2] (setting [5]) was found to be 2140 ± 850 nM. Also, on MRGPRX4-83S [3] (Table 2), the Emax was 109% and the EC50 was found to be 4.69 ± 1.58 nM. Also, at human MRGPRX4-83L [4] (Table 1), the EC50 amounted to 80.8 ± 16.8 nM and the Emax turned out to be 100%.

The compound `CCn1c(=O)c2[nH]c(CCc3ccc(F)cc3)nc2n(CCCCP(=O)(O)O)c1=O` [B-14, (4-(1-Ethyl-8-(4-fluorophenethyl)-2,6-dioxo-1,2,6,7-tetrahydro-3H-purin-3-yl)butyl)phosphonic acid] came in with a melting point of 256 to 260 °C. In addition, at MRGPRX4-83S [1] (Table 2), the Emax was determined as 81% and the EC50 turned out to be 735 ± 131 nM. The “value in brackets beside IC50 >10” value at human MRGPRX4-83L [2] (Table 1, bracketed value ± spread in IC50 column, not defined, inhibition of 2.6 μM B-16) turned out to be 3 ± 15. For the same compound, the 50% inhibitory concentration (IC50) at human MRGPRX4-83L [2] (Table 1, inhibition of the effect of 2.6 μM B-16) was greater than 10000 nM. The EC50 on human MRGPRX4-83L [2] (setting [5]) was greater than 10000 nM. At MRGPRX4-83S [3] (Table 2), the Emax was 74% and the EC50 was 500 ± 113 nM. In addition, at human MRGPRX4-83L [4] (Table 1), the concentration giving a half-maximal response (EC50) amounted to 9450 ± 3230 nM and the maximal effect (Emax) came out at 99%.

Turning to `C#CCn1c(=O)c2c(nc(CCc3ccccc3Br)n2CC2CCCCC2)n(CCCCP(=O)(O)O)c1=O` [B-36, (4-(8-(2-Bromophenethyl)-7-(cyclohexylmethyl)-2,6-dioxo-1-(prop-2-yn-1-yl)-1,2,6,7-tetrahydro-3H-purin-3-yl)butyl)phosphonic acid], the melting point lay in the range of 143 to 145 °C. On MRGPRX4-83S [1] (Table 3), the Emax came to 84% and the EC50 was found to be 4.28 ± 0.83 nM. On human MRGPRX4-83L [2] (Table 4), the Emax is 95% and the EC50 worked out at 1250 ± 410 nM. Besides, at MRGPRX4-83S [3] (Table 3), the Emax was 112% and the EC50 amounted to 0.787 ± 0.164 nM. Besides, at human MRGPRX4-83L [4] (Table 4), the EC50 is 25.2 ± 3 nM and the Emax was found to be 109%.

With `C#CCn1c(=O)c2c(nc(CCc3ccccc3Br)n2C(C)C)n(CCCCP(=O)(O)O)c1=O` [B-46, (4-(8-(2-Bromophenethyl)-7-isopropyl-2,6-dioxo-1-(prop-2-yn-1-yl)-1,2,6,7-tetrahydro-3H-purin-3-yl)butyl)phosphonic acid], the melting point was 109 to 111 °C. Moreover, on MRGPRX4-83S [1] (Table 3), the maximal response (Emax) was found to be 91% and the EC50 was 0.075 ± 0.0184 nM. In addition, on human MRGPRX4-83L [2] (Table 4), the Emax was 116% and the EC50 is 13.6 ± 6.1 nM. For the same compound, on MRGPRX4-83S [3] (Table 3), the Emax is 109% and the EC50 turned out to be 0.79 ± 0.262 nM. On human MRGPRX4-83L [4] (Table 4), the EC50 is 0.684 ± 0.073 nM and the Emax amounted to 108%.

Compound `C#CCn1c(=O)c2c(nc(CCc3ccc(Br)cc3)n2CC2CCCC2)n(CCCCP(=O)(O)O)c1=O` [B-38, (4-(8-(4-Bromophenethyl)-7-(cyclopentylmethyl)-2,6-dioxo-1-(prop-2-yn-1-yl)-1,2,6,7-tetrahydro-3H-purin-3-yl)butyl)phosphonic acid] displayed a melting point of 129 to 131 °C. For the same compound, at MRGPRX4-83S [1] (Table 3), the Emax was 79% and the EC50 stood at 13.4 ± 0.8 nM. In addition, at human MRGPRX4-83L [2] (Table 4), the Emax is 92% and the EC50 turned out to be 1.44 ± 0.32 nM. Also, the IC50 at MRGPRX4-83S [3] amounted to 5.23 ± 2.2 nM. Also, on MRGPRX4-83S [3] (Table 3), the Emax amounted to 6% and the half-maximal effective concentration (EC50) was found to be 5.81 ± 0.58 nM. Also, the IC50 at human MRGPRX4-83L [4] was found to be 949 ± 308 nM. Besides, on human MRGPRX4-83L [4] (Table 4), the EC50 stood at 267 ± 153 nM and the Emax was determined as 9%.

For the origin of these results see patent US20240002416A1 (Rheinische-Friedrich-Wilhelms-Universität Bonn, priority 2020, published 2024).
